From patent US20220128564A1, “USE OF A STIMULATING AGENT TO ASSAY IMMUNE CELL POTENCY” (RESEARCH INSTITUTE AT NATIONWIDE CHILDREN'S HOSPITAL, priority 2019, published 2022)

Columns and labels:
expanded NK cells = experiment: PHA-induced cytokine assay, expanded NK cells; format: cell-based; conditions: expanded NK cells (N=18), 10^6 cells, 1 hour stimulation with PHA, supernatant
Excerpt: (§1) Use of tumor cells to test effector function of therapeutic immune cells has been a standard practice. These target cells add biological variabilities to the outcomes of assay. Also, this assay set up is more tedious and complicated adding up variabilities due to target condition, plate set up, person-to-person difference in techniques. The therapeutic response of NK cells via comparison of a PHA cytokine assay against a widely use tumor cell (K562) mediated cytokine assay. The levels of cytokine indicate potency of the response from the NK cells.
(§2) After establishing an optimal number of cells (10^6) for the assay, multiple donors of fresh peripheral blood NK cells (N=10) and expanded NK cells (N=18) were stimulated with PHA to produce cytokines, and after 1 hour cytokine in the supernatant was assessed. Expression of most cytokines are similar between the two types of NK cells, but several cytokines and chemokines related to NK cell function were highly differentially expressed in response to stimulation (FIG. 6). Next the expression of 6 cytokines in fresh and expanded NK cells was measured after 1 hour stimulation with PHA. Pentraxin-3 (mean 1,062 vs 7), IL-8 (mean 821 vs 11), and Chitinase 3-like 1 (mean 620 vs 7) were highly overexpressed in fresh NK cells compared to expanded NK cells, and IFN-γ (mean 15 vs 105), IL-2 (mean 3 vs 141), and CD30 (mean9 vs. 156) were highly overexpressed in expanded NK cells compared to fresh NK cells (FIG. 7). On the basis of overexpression alone, a cut-off of expressing 10 pg/mL of both IFN-γ and IL-2 has 94% specificity […] and 89% sensitivity (16 of 18) in differentiating expanded NK cells from fresh peripheral blood NK cells (FIG. 8).

[1] = tested on: fresh peripheral blood NK cells; experiment: PHA-induced cytokine assay, fresh peripheral blood NK cells; format: cell-based; conditions: fresh NK cells (N=10), 10^6 cells, 1 hour stimulation with PHA, supernatant
Excerpt: as §1, §2

phytohemagglutinin [PHA]
CD30 expression (mean) (expanded NK cells): 156
Chitinase 3-like 1 expression (mean) (expanded NK cells): 7
IFN-γ expression (mean) (expanded NK cells): 105
IL-2 expression (mean) (expanded NK cells): 141
IL-8 expression (mean) (expanded NK cells): 11
Pentraxin-3 expression (mean) (expanded NK cells): 7
CD30 expression (mean) [1]: 9
Chitinase 3-like 1 expression (mean) [1]: 620
IFN-γ expression (mean) [1]: 15
IL-2 expression (mean) [1]: 3
IL-8 expression (mean) [1]: 821
Pentraxin-3 expression (mean) [1]: 1,062
